Counter-ions that a name gives are not always drawn. Like-named read-outs stand apart in the source and are kept apart here.

For five molecules, IC50 results are on record in patent US20260234165A1, “MACROCYCLIC COMPOUNDS, PREPARATION METHOD THEREFOR, AND USE THEREOF” (GENFLEET THERAPEUTICS (SHANGHAI) INC., priority 2004, published 2026).

Common to all, as to format: cell-based, human
Assay [1] relates to p-ERK in NCI-H441 cells (KRAS G12V mutation). Briefly: Cell p-ERK assay (HTRF) in NCI-H441 cells. The procedure, abridged:
(§1)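 AsPC-1 (10000/well) or NCI-H441 (20000/well) cells were seeded in RPMI-1640 with 10% FBS, grown overnight, then exposed to 3.16-fold compound dilutions (0.1% DMSO) for 3 h at 37 °C. Lysates were read for phospho-ERK T202/Y204 by HTRF; IC50 came from four-parameter fits of inhibition versus DMSO and blank wells.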
(In general: Time-resolved FRET reads energy transfer from a long-lived donor to a nearby acceptor.)

In assay [2] the test system is p-ERK in AsPC-1 cells (KRAS G12D mutation). Briefly: Cell p-ERK assay (HTRF) in AsPC-1 cells. A digest of the protocol: as §1
For assay [3], the system named is AsPC-1 cells (KRAS G12D mutation). The assay is described as follows: 3D cell proliferation assay (CellTiter Glo-3D), AsPC-1. The settings on record: medium with 2% FBS, read-out: AsPC-1 AP IC50. A digest of the protocol: (§2)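 NCI-H441 ([…] lung) and AsPC-1 (KRAS G12D pancreatic) cells, 800 per well, were seeded in RPMI-1640 with 2% FBS and dosed next day with 3.16-fold compound dilutions (0.1% DMSO). After 5 days at 37 °C, CellTiter-Glo 3D luminescence gave inhibition versus DMSO and blank; IC50 from four-parameter fit.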

Assay [4] relates to NCI-H441 cells. Briefly: 3D cell proliferation assay (CellTiter Glo-3D), NCI-H441. The settings on record: medium with 2% FBS, read-out: H441 AP IC50. The procedure, abridged:
as §2
For orientation: In ATP-based viability assays light output follows the ATP content of the culture.

[5] abbreviates: NCI-H441 cells, 3 h compound incubation, HTRF p-ERK T202/Y204, read-out: H441 p-ERK IC50.
Where [6] appears, read: AsPC-1 cells, 3 h compound incubation, HTRF p-ERK T202/Y204, read-out: AsPC-1 p-ERK IC50.
Where [7] appears, read: 3D cell proliferation (CellTiter Glo-3D).
The mark [8] stands for this setting: Homo sapiens, ASPC1, 3D cell proliferation (CellTiter Glo-3D).

As to `CCn1c(-c2cc(OCCN3CCS(=O)(=O)C(C)(C)C3)cnc2[C@H](C)OC)c2c3cc(ccc31)-c1csc(n1)C[C@H](NC(=O)[C@H]1C[C@@H]1C)C(=O)N1CCC[C@H](N1)C(=O)OCC(C)(C)C2` (atropisomer, axis not shown; (Ra)) [Compound Z665], the IC50 is 0.11 nM in assay [1] (setting [5]), 0.32 nM in assay [2] (setting [6]), 0.78 nM in assay [3] (setting [7]) and 0.21 nM in assay [4] (setting [7]).
The corresponding values for `CCn1c(-c2cc(OCCN3CCOCC34CC4)cnc2[C@H](C)OC)c2c3cc(ccc31)-c1csc(n1)C[C@H](NC(=O)[C@H]1C[C@@H]1C(F)F)C(=O)N1CCC[C@H](N1)C(=O)OCC1(CC1)C2` (relative stereo) [Compound Z557, (1S,2S)—N-((3′S,4′S,Z)—(Ra)-2′-(5-(2-(7-oxa-4-azaspiro[2,5]octan-4-yl)ethoxy)-2-((S)-1-methoxyethyl)pyridin-3-yl)-1′-ethyl-5′,7′-dioxospiro[cyclopropane-1,10′-8-oxa-2(4,2)-thiazola-1(5,3)-indola-6(1,3)-pyridazinacycloundecaphan]-4′-yl)-2-trans-(difluoromethyl)cyclopropane-1-carboxamide] are 5.56 nM, 20.7 nM, 16.3 nM and 7.66 nM.
Regarding `CCn1c(-c2cc(OCCN3CCS(=O)(=NC)CC3)cnc2[C@H](C)OC)c2c3cc(ccc31)-c1csc(n1)C[C@H](NC(=O)[C@H]1[C@H](C)[C@@H]1C)C(=O)N1CCC[C@H](N1)C(=O)OCC(C)(C)C2` (atropisomer, axis not shown; (Ra)) [Compound Z601, (1r,2R,3S)—N-((6^3S,4S,Z)-1^1-ethyl-1^2-(Ra)-(2-((S)-1-methoxyethyl)-5-(2-(1-(methylimino)-1-oxido-1λ^6-thiomorpholino)ethoxy)pyridin-3-yl)-10-10-dimethyl-5,7-dioxo-6^1,6^2,6^3,6^4,6^5,6^6-hexahydro-1^1H-8-oxa-2(4,2)-thiazola-1(5,3)-indola-6(1,3)-pyridazinacycloundecaphane-4-yl)-2,3-dimethylcyclopropane-1-carboxamide], the half-inhibitory concentration (IC50) in assay [1] (Homo sapiens, NCI-H441, 3 h, NCI-H441 cells, 3 h compound incubation, HTRF p-ERK T202/Y204, read-out: H441 p-ERK IC50) stood at 0.62 nM; in assay [2] (Homo sapiens, ASPC1, 3 h, AsPC-1 cells, 3 h compound incubation, HTRF p-ERK T202/Y204, read-out: AsPC-1 p-ERK IC50), 0.49 nM; in assay [3] (setting [8]) it was 0.58 nM; in assay [4] (Homo sapiens, NCI-H441, 3D cell proliferation (CellTiter Glo-3D)), 0.36 nM.
For the molecule `CCn1c(-c2cc(OCC(C)(C)N3CCS(=O)(=O)CC3)cnc2[C@H](C)OC)c2c3cc(ccc31)-c1csc(n1)C[C@H](NC(=O)[C@H]1[C@H](C)[C@@H]1C)C(=O)N1CCC[C@H](N1)C(=O)OCC(C)(C)C2` [Compound Z667A], the IC50 is 1.6 nM in assay [1] (setting [5]), 2.6 nM in assay [2] (setting [6]), 2.97 nM in assay [3] (setting [7]) and 1.31 nM in assay [4] (setting [7]).
Consider `CCn1c(-c2cc(C#CCN3CCC(C#N)(c4cccc[n+]4[O-])CC3)cnc2[C@H](C)OC)c2c3cc(ccc31)-c1csc(n1)C[C@H](NC(=O)[C@H]1[C@H](C)[C@@H]1C)C(=O)N1CCC[C@H](N1)C(=O)OCC(C)(C)C2` [Compound Z1054, 2-(4-cyano-1-(3-(5-((6^3S,4S,Z)-4-((2R,3S)-2 3-dimethylcyclopropane-1-carboxamido)-1^1-ethyl-10,10-dimethyl-5,7-dioxo-6^1,6^2,6^3,6^4,6^5,6^6-hexahydro-1^1H-8-oxa-2(4.2)-thiazola-1(5,3)-indola-6(1,3)-pyridazinacycloundecaphane-12-yl)-6-((S)-1-methoxyethyl)pyridin-3-yl)prop-2-yn-1-yl)piperidin-4-yl)pyridine 1-oxide formate], for which the concentration for half-maximal inhibition (IC50) in assay [1] (Homo sapiens, NCI-H441, 3 h, read-out: H441 p-ERK IC50(nM)) was 0.25 nM; in assay [2] (Homo sapiens, ASPC1, 3 h, read-out: AsPC-1 p-ERK IC50(nM)) it was 0.16 nM; in assay [3] (setting [8]), 0.08 nM; in assay [4] (Homo sapiens, 3D cell proliferation (CellTiter Glo-3D)), 0.15 nM.

By IC50 is commonly meant the midpoint of a concentration-inhibition curve.
